Format in all cases: cell-based
Assay [1] has as its target T1, human GLP-1R (Homo sapiens, UniProt P43220).
T1 construct: expressed in transfected cells; host or cells: CHO-K1, plasmids hGLP-1/pIRESneo3 and Cre-luc(Zeo)
Kind of assay: Agonist activity against human GLP-1R, CRE-luciferase reporter assay in hGLP-1R/CRE-luc/CHO-K1 cells. An excerpt: (§1) Evaluation of agonist activity against human GIPR, human GLP-1R and human glucagon R using rise in intracellular cAMP concentration as index
Four copies of the cAMP response sequence and the Zeocin resistance gene were introduced to pGL3(R2.2)-Basic Vector (Promega) to construct Cre-luc(Zeo) reporter plasmid.
The human GLP-1R gene having a sequence identical to the sequence of GenBank Accession No. NM_002062 was cloned into pIRESneo3 vector to prepare hGLP-1/pIRESneo3.
The Cre-luc(Zeo) obtained in (3) and the plasmid hGLP-1/pIRESneo3 obtained in (5) were introduced to CHO-K1 cells to obtain transformants. Next, a cell line induced to express luciferase, i.e., hGLP-1R/CRE-luc/CHO-K1 cells, were selected from the obtained transformants by the addition of GLP-1.
(§2) The hGIPR/CRE-LUC/CHO-K1 cells were inoculated at a cell density of 25 μL/well (5×10^4 cells/well) to a 384-well white plate (Corning), and cultured overnight in Ham F12 medium containing 10% fetal bovine serum, 100 U/mL penicillin and 100 μg/mL streptomycin in a CO2 incubator of 37° C. A medium containing a test compound was added at a concentration of 5 μL/well to the cells, and the resultant cells were incubated for 4 hours in a CO2 incubator of 37° C. to give the final concentration of 1 μM. PicaGene LT7.5 (Toyo Ink Co., Ltd.) was added thereto at a concentration of 30 μL/well, and the mixture was shaken with light shielded. After 30 minutes, the luciferase activity was measured using a plate reader Envision (PerkinElmer). The luciferase activity in the presence of 10 nM GIP was defined as 100%, and the luciferase activity from the addition of DMSO instead of the test compound was defined as 0%. The GIPR agonist activity was calculated with a rise in intracellular cAMP concentration as an index.
The GLP-1R agonist activity was assayed in the same way as above using the hGLP-1R/CRE-luc/CHO-K1 cells. The luciferase activity in the presence of 10 nM GLP-1 was defined as 100%, and the luciferase activity from the addition of DMSO instead of the test compound was defined as 0%. The GLP-1R agonist activity was calculated with a rise in intracellular cAMP concentration as an index.

The target in assay [2] is T2, human glucagon R (Homo sapiens, UniProt P47871).
T2 construct: expressed in transfected cells; host or cells: CHO-K1 (CRE-LUC/CHO-K1), plasmid hGlucagonR/pMSRα-neo
T2 sequence (P47871 26-477): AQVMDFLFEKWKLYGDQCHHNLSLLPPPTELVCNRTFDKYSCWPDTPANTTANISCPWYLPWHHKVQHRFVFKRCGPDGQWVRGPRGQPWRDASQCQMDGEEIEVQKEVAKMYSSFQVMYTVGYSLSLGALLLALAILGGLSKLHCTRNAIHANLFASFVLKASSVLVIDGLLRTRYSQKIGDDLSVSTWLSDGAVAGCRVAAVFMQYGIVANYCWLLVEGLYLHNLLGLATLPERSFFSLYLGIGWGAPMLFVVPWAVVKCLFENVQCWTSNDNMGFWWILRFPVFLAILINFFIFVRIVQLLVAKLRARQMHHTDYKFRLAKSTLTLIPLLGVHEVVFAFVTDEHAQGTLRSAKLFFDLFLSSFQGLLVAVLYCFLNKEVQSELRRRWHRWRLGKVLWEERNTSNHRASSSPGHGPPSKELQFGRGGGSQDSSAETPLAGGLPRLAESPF
Put plainly: Agonist activity against human glucagon R, CRE-luciferase reporter assay in hGlucagonR/CRE-LUC/CHO-K1 cells.
Excerpt: as §1
(§3) The luciferase reporter gene having an upstream cAMP response sequence was introduced to CHO-K1 cells to construct CRE-LUC/CHO-K1 cells.
The human glucagon R gene having a sequence identical to the sequence of GenBank Accession No. NM_000160 was cloned into pMSRα-neo vector to prepare hGlucagonR/pMSRα-neo.
The plasmid hGlucagonR/pMSRα-neo obtained in (7) was introduced to the CRE-LUC/CHO-K1 cells obtained in (2) to obtain transformants. Next, a cell line induced to express luciferase, i.e., hGlucagonR/CRE-LUC/CHO-K1 cells, were selected from the obtained transformants by the addition of glucagon.
as §2
The glucagon R agonist activity was assayed in the same way as above using the hGlucagonR/CRE-LUC/CHO-K1 cells. The luciferase activity in the presence of 10 nM glucagon was defined as 100%, and the luciferase activity from the addition of DMSO instead of the test compound was defined as 0%. The glucagon agonist activity was calculated with a rise in intracellular cAMP concentration as an index.
For orientation: A reporter such as luciferase makes a cellular process visible.

In assay [3] the target is T3, human GIPR (Homo sapiens, UniProt P48546).
T3 construct: expressed in transfected cells; host or cells: CHO-K1 (CRE-LUC/CHO-K1), plasmid hGIPR/pMSRα-neo
T3 sequence (P48546 22-466): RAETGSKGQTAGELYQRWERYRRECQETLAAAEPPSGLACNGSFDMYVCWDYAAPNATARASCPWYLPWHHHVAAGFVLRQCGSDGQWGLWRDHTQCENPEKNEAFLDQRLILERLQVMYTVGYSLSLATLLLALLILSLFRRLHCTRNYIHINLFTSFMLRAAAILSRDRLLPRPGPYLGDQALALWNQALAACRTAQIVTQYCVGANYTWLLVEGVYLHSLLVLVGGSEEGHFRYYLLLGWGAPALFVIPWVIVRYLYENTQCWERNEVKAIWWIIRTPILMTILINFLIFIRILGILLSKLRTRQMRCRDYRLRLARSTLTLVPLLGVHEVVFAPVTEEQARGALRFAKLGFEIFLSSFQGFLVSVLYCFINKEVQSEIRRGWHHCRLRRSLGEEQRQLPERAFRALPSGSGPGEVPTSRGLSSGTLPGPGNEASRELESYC
Put plainly: Agonist activity against human GIPR, CRE-luciferase reporter assay (rise in intracellular cAMP) in hGIPR/CRE-LUC/CHO-K1 cells.
Excerpt: as §1
The human GIPR gene having a sequence identical to the sequence of GenBank Accession No. U39231 was cloned into pMSRα-neo vector to prepare hGIPR/pMSRα-neo.
as §3
The plasmid hGIPR/pMSRα-neo obtained in (1) was introduced to the CRE-LUC/CHO-K1 cells obtained in (2) to obtain transformants. Next, a cell line induced to express luciferase, i.e., hGIPR/CRE-LUC/CHO-K1 cells, were selected from the obtained transformants by the addition of GIP.
as §2

Square brackets hold non-standard residues; d marks the D form. Peptide text beside a SMILES is read from it. αMeY = C[C@](N)(Cc1ccc(O)cc1)C(=O)O; αMeF = C[C@](N)(Cc1ccccc1)C(=O)O; Cha = N[C@@H](CC1CCCCC1)C(=O)O; Aib = CC(C)(N)C(=O)O Some results are limits rather than exact numbers.

T1 sequence (P43220 24-463): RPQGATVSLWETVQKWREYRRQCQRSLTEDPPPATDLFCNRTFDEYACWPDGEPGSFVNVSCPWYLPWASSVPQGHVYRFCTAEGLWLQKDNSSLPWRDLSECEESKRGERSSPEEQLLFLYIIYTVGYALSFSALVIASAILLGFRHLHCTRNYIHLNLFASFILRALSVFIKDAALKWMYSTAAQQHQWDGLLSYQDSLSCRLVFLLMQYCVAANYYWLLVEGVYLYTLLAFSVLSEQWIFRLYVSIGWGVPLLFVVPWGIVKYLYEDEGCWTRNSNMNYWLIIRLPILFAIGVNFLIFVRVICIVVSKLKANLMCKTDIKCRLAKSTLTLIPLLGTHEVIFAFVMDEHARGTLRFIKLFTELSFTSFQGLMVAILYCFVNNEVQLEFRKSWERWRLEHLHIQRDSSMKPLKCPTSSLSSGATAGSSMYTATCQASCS

Take `CC[C@H](C)[C@H](NC(=O)C(C)(C)NC(=O)[C@H](Cc1ccc(O)cc1)NC(=O)[C@H](CC(=O)O)NC(=O)[C@H](CO)NC(=O)[C@@H](NC(=O)[C@](C)(Cc1ccccc1)NC(=O)[C@@H](NC(=O)CNC(=O)[C@H](CCC(=O)O)NC(=O)C(C)(C)NC(=O)[C@@H](N)Cc1ccc(O)cc1)[C@@H](C)O)[C@@H](C)O)C(=O)N[C@@](C)(Cc1ccc(O)cc1)C(=O)N[C@@H](CC(C)C)C(=O)N[C@@H](CC(=O)O)C(=O)N[C@@H](CCCCN)C(=O)N[C@@H](CCC(N)=O)C(=O)N[C@@H](C)C(=O)N[C@@H](CCC(N)=O)C(=O)N[C@@H](C)C(=O)N[C@@H](CCC(=O)O)C(=O)N[C@@H](Cc1ccccc1)C(=O)N[C@H](C(=O)N[C@@H](CCCCN)C(=O)N[C@@H](Cc1c[nH]c2ccccc12)C(=O)N[C@@H](CC(C)C)C(=O)N[C@@H](CC(C)C)C(=O)N[C@@H](CCCCN)C(=O)NCC(=O)NCC(=O)N1CCC[C@H]1C(=O)N[C@@H](CO)C(=O)N[C@@H](CO)C(=O)NCC(=O)N[C@@H](C)C(=O)N1CCC[C@H]1C(=O)N1CCC[C@H]1C(=O)N1CCC[C@H]1C(=O)N[C@@H](CO)C(=O)N[C@@H](CCCCN)C(N)=O)C(C)C` [Example 17] (H-Y[Aib]EGT[αMeF]TSDY[Aib]I[αMeY]LDKQAQAEFVKWLLKGGPSSGAPPPSK-NH2): the EC50 – broadly, the concentration at which the effect is half-maximal – in assay [1] was 0.018 nM; in assay [2] it was more than 1000 nM; in assay [3], 0.014 nM.

For the compound `CC[C@H](C)[C@H](NC(=O)C(C)(C)NC(=O)[C@H](Cc1ccc(O)cc1)NC(=O)[C@H](CC(=O)O)NC(=O)[C@H](CO)NC(=O)[C@@H](NC(=O)[C@](C)(Cc1ccccc1)NC(=O)[C@@H](NC(=O)CNC(=O)[C@H](CCC(=O)O)NC(=O)C(C)(C)NC(=O)[C@@H](N)Cc1ccc(O)cc1)[C@@H](C)O)[C@@H](C)O)C(=O)N[C@@H](CC1CCCCC1)C(=O)N[C@@H](CC(C)C)C(=O)N[C@@H](CC(=O)O)C(=O)N[C@@H](CCCCN)C(=O)N[C@@H](CCC(N)=O)C(=O)N[C@@H](C)C(=O)N[C@@H](CCC(N)=O)C(=O)N[C@@H](C)C(=O)N[C@@H](CCC(=O)O)C(=O)N[C@@H](Cc1ccccc1)C(=O)N[C@H](C(=O)N[C@@H](CCCCN)C(=O)N[C@@H](Cc1c[nH]c2ccccc12)C(=O)N[C@@H](CC(C)C)C(=O)N[C@@H](CC(C)C)C(=O)N[C@@H](CCCCN)C(=O)NCC(=O)NCC(=O)N1CCC[C@H]1C(=O)N[C@@H](CO)C(=O)N[C@@H](CO)C(=O)NCC(=O)N[C@@H](C)C(=O)N1CCC[C@H]1C(=O)N1CCC[C@H]1C(=O)N1CCC[C@H]1C(=O)N[C@@H](CO)C(=O)N[C@@H](CCCCN)C(N)=O)C(C)C` [Example 14] (H-Y[Aib]EGT[αMeF]TSDY[Aib]I[Cha]LDKQAQAEFVKWLLKGGPSSGAPPPSK-NH2), the figures for the EC50 in assay [1], in assay [2] and in assay [3] were 0.021 nM, more than 1000 nM and 0.013 nM, respectively.

For `CC[C@H](C)[C@H](NC(=O)C(C)(C)NC(=O)[C@H](Cc1ccc(O)cc1)NC(=O)[C@H](CC(=O)O)NC(=O)[C@H](CO)NC(=O)[C@@H](NC(=O)[C@](C)(Cc1ccccc1)NC(=O)[C@@H](NC(=O)CNC(=O)[C@H](CCC(=O)O)NC(=O)C(C)(C)NC(=O)[C@@H](N)Cc1ccc(O)cc1)[C@@H](C)O)[C@@H](C)O)C(=O)NC(C)(C)C(=O)N[C@@H](CC(C)C)C(=O)N[C@@H](CC(=O)O)C(=O)N[C@@H](CCCCN)C(=O)N[C@@H](CCC(N)=O)C(=O)N[C@@H](C)C(=O)N[C@@H](CCC(N)=O)C(=O)N[C@@H](CO)C(=O)N[C@@H](CCC(=O)O)C(=O)N[C@@H](Cc1ccccc1)C(=O)N[C@H](C(=O)N[C@@H](CCCCN)C(=O)N[C@@H](Cc1c[nH]c2ccccc12)C(=O)N[C@@H](CC(C)C)C(=O)N[C@@H](CC(C)C)C(=O)N[C@@H](CCCCN)C(=O)NCC(=O)NCC(=O)N1CCC[C@H]1C(=O)N[C@@H](CO)C(=O)N[C@@H](CO)C(=O)NCC(=O)N[C@@H](C)C(=O)N1CCC[C@H]1C(=O)N1CCC[C@H]1C(=O)N1CCC[C@H]1C(=O)N[C@@H](CO)C(N)=O)C(C)C` [Example 8] (H-Y[Aib]EGT[αMeF]TSDY[Aib]I[Aib]LDKQAQSEFVKWLLKGGPSSGAPPPS-NH2), the EC50 is 0.014 nM in assay [1], more than 1000 nM in assay [2] and 0.008 nM in assay [3].

For `CC[C@H](C)[C@H](NC(=O)[C@H](C)NC(=O)[C@H](Cc1ccc(O)cc1)NC(=O)[C@H](CC(=O)O)NC(=O)[C@H](CO)NC(=O)[C@@H](NC(=O)[C@](C)(Cc1ccccc1)NC(=O)[C@@H](NC(=O)CNC(=O)[C@H](CCC(=O)O)NC(=O)C(C)(C)NC(=O)[C@@H](N)Cc1ccc(O)cc1)[C@@H](C)O)[C@@H](C)O)C(=O)NC(C)(C)C(=O)N[C@@H](CC(C)C)C(=O)N[C@@H](CC(=O)O)C(=O)N[C@@H](CCCCN)C(=O)N[C@@H](CCC(N)=O)C(=O)N[C@@H](C)C(=O)N[C@@H](CCC(N)=O)C(=O)N[C@@H](C)C(=O)N[C@@H](CCC(=O)O)C(=O)N[C@@H](Cc1ccccc1)C(=O)N[C@H](C(=O)N[C@@H](CCCCN)C(=O)N[C@@H](Cc1c[nH]c2ccccc12)C(=O)N[C@@H](CC(C)C)C(=O)N[C@@H](CC(C)C)C(=O)N[C@@H](CCCCN)C(=O)NCC(=O)NCC(=O)N1CCC[C@H]1C(=O)N[C@@H](CO)C(=O)N[C@@H](CO)C(=O)NCC(=O)N[C@@H](C)C(=O)N1CCC[C@H]1C(=O)N1CCC[C@H]1C(=O)N1CCC[C@H]1C(=O)N[C@@H](CO)C(N)=O)C(C)C` [Example 5] (H-Y[Aib]EGT[αMeF]TSDYAI[Aib]LDKQAQAEFVKWLLKGGPSSGAPPPS-NH2), the half-maximal effective concentration (EC50) in assay [1] was 0.0072 nM; in assay [2] it was more than 1000 nM; in assay [3], 0.0055 nM.

In the case of `CC(C)C[C@H](NC(=O)[C@H](CC(C)C)NC(=O)[C@H](Cc1c[nH]c2ccccc12)NC(=O)[C@H](CCCCN)NC(=O)[C@@H](NC(=O)[C@H](Cc1ccccc1)NC(=O)[C@H](CCC(=O)O)NC(=O)[C@H](C)NC(=O)[C@H](CCC(N)=O)NC(=O)[C@H](C)NC(=O)[C@H](CCC(N)=O)NC(=O)[C@H](CCCCN)NC(=O)[C@H](CC(=O)O)NC(=O)[C@H](CC(C)C)NC(=O)[C@](C)(Cc1ccccc1)NC(=O)[C@H](CCCCN)NC(=O)C(C)(C)NC(=O)[C@H](Cc1ccc(O)cc1)NC(=O)[C@H](CC(=O)O)NC(=O)[C@H](CO)NC(=O)[C@@H](NC(=O)[C@](C)(Cc1ccccc1)NC(=O)[C@@H](NC(=O)CNC(=O)[C@H](CCC(=O)O)NC(=O)C(C)(C)NC(=O)[C@@H](N)Cc1ccc(O)cc1)[C@@H](C)O)[C@@H](C)O)C(C)C)C(=O)N[C@@H](CCCCN)C(=O)NCC(=O)NCC(=O)N1CCC[C@H]1C(=O)N[C@@H](CO)C(=O)N[C@@H](CO)C(=O)NCC(=O)N[C@@H](C)C(=O)N1CCC[C@H]1C(=O)N1CCC[C@H]1C(=O)N1CCC[C@H]1C(=O)N[C@@H](CO)C(=O)N[C@@H](CCCCN)C(N)=O` [Example 15] (H-Y[Aib]EGT[αMeF]TSDY[Aib]K[αMeF]LDKQAQAEFVKWLLKGGPSSGAPPPSK-NH2), the half-maximal effective concentration (EC50) is 0.015 nM in assay [1], more than 1000 nM in assay [2] and 0.013 nM in assay [3].

The record behind these values is patent US9200051B2, “Peptide compound” (TAKEDA PHARMACEUTICAL COMPANY LIMITED, priority 2013, dated 2015).
